Experimental data taken from the supplement of paper PMC11208160.

assay: recombinant UMI read abundance after kanamycin selection (control-corrected) (log10(CPM+1)); higher = more efficient recombination; extreme values may be limits of the assay; sequences stand for … in AGTGCAGAGAAAATCGGCCAGTTTTCTCTGCCTGCAGTCCGCATGCCGTGGGACCCCTTGGGTTCTAACCTGTTGCCTAGATTTATGCAGCGGACTGCCTTTCTCCCAAAGTGATAAACCGG…AGGTTGGTTTCACT; site = the 11-nt donor
How it was run: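 Values, expressed as log10(CPM+1), derive from recombinant UMI counts converted to CPM, averaged across replicates and scaled by control-derived factors. Plating was with IPTG (0.07 mM) plus kanamycin or unselected, two replicates each. The screen pooled donor and donor-binding-loop pairs for the IS621 bridge recombinase in Escherichia coli.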
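Also: IS621 bridge recombinase in Escherichia coli cells against a fixed T5 target plasmid.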

Sequence	recombinant UMI read abundance (log10)
CCTAATGCATGGACCGGTTTTCCCGGTAATCCGTATTTGAT (site CCTAATGCTAT)	0
CCTACGCCATGGACCGGTTTTCCCGGTAATCCGTATTTGAA (site CCTACGCCTTT)	0.0231
CCTACTGCATGGACCGGTTTTCCCGGTAATCCGTATTTGCC (site ACTACTGCTGG)	0
CCTACTGCATGGACCGGTTTTCCCGGTAATCCGTATTTGCC (site CCTACTGCTGG)	0.191
CCTACTGCATGGACCGGTTTTCCCGGTAATCCGTATTTGCC (site GCTACTGCTGG)	0
CCTACTGCATGGACCGGTTTTCCCGGTAATCCGTATTTGCC (site TCTACTGCTGG)	0
CCTCAAGCATGGACCGGTTTTCCCGGTAATCCGTATTTGAT (site CCTAAAGCTAT)	0
CCTCAAGCATGGACCGGTTTTCCCGGTAATCCGTATTTGAT (site CCTCAAGCTAT)	0.0413
CCTCAAGCATGGACCGGTTTTCCCGGTAATCCGTATTTGAT (site CCTGAAGCTAT)	0.00432
CCTCAAGCATGGACCGGTTTTCCCGGTAATCCGTATTTGAT (site CCTTAAGCTAT)	0
CCTCACTCATGGACCGGTTTTCCCGGTAATCCGTATTTGCT (site CCTCACTCTAG)	0.747
CCTCCGGCATGGACCGGTTTTCCCGGTAATCCGTATTTGGT (site CCTCCGGCTAC)	0.0132
CCTCGATCATGGACCGGTTTTCCCGGTAATCCGTATTTGGC (site CCTCGATCTGC)	0
CCTCGGACATGGACCGGTTTTCCCGGTAATCCGTATTTGGT (site CCTCGGACTAC)	0.013
CCTCGTACATGGACCGGTTTTCCCGGTAATCCGTATTTGAG (site CCTCGTACTCT)	0.0191
CCTGCAGCATGGACCGGTTTTCCCGGTAATCCGTATTTGGC (site CCTGCAGCTGC)	0
CCTGGTTCATGGACCGGTTTTCCCGGTAATCCGTATTTGAC (site CCTGGTTCTGT)	0
CCTGTCGCATGGACCGGTTTTCCCGGTAATCCGTATTTGAA (site CCTGTCGCTTT)	0.0175
CCTGTCGCATGGACCGGTTTTCCCGGTAATCCGTATTTGAC (site CCTGTCGCTGT)	0

Sequence	recombinant UMI read abundance (log10)
CCTTAACCATGGACCGGTTTTCCCGGTAATCCGTATTTGCT (site CCTTAACCTAG)	0
CCTTACGCATGGACCGGTTTTCCCGGTAATCCGTATTTGGC (site CCTTACGCTGC)	0
CCTTATACATGGACCGGTTTTCCCGGTAATCCGTATTTGGG (site CCTTATACTCC)	0.016
CCTTATACATGGACCGGTTTTCCCGGTAATCCGTATTTGGT (site CCTTATACTAC)	0.00722
CCTTCTGCATGGACCGGTTTTCCCGGTAATCCGTATTTGGA (site CCTTCTGCTTC)	0.00377
CCTTTCGCATGGACCGGTTTTCCCGGTAATCCGTATTTGAT (site CCTTTCGCTAT)	0.0105
CCTTTCTCATGGACCGGTTTTCCCGGTAATCCGTATTTGGG (site CCATTCTCTCC)	0.00388
CCTTTCTCATGGACCGGTTTTCCCGGTAATCCGTATTTGGG (site CCCTTCTCTCC)	0.0264
CCTTTCTCATGGACCGGTTTTCCCGGTAATCCGTATTTGGG (site CCGTTCTCTCC)	0.011
CCTTTCTCATGGACCGGTTTTCCCGGTAATCCGTATTTGGG (site CCTTTCTCTCC)	0
CCTTTGGCATGGACCGGTTTTCCCGGTAATCCGTATTTGCT (site CATTTGGCTAG)	0.00684
CCTTTGGCATGGACCGGTTTTCCCGGTAATCCGTATTTGCT (site CCTTTGGCTAG)	0.00901
CCTTTGGCATGGACCGGTTTTCCCGGTAATCCGTATTTGCT (site CGTTTGGCTAG)	0
CCTTTGGCATGGACCGGTTTTCCCGGTAATCCGTATTTGCT (site CTTTTGGCTAG)	0.00684
CGAAAACCATGGACCGGTTTTCCCGGTAATCCGTATTTGTT (site CGAAAACCTAA)	0
CGAAAACCATGGACCGGTTTTCCCGGTAATCCGTATTTGTT (site CGGAATCCTAA)	0
CGAACATCATGGACCGGTTTTCCCGGTAATCCGTATTTGAT (site CGAACATCTAT)	1.63
CGAACATCATGGACCGGTTTTCCCGGTAATCCGTATTTGAT (site CGATCATCTAG)	0
CGAAGTGCATGGACCGGTTTTCCCGGTAATCCGTATTTGGG (site CGAAGTGCTCC)	0.671

Sequence	recombinant UMI read abundance (log10)
CGAATGCCATGGACCGGTTTTCCCGGTAATCCGTATTTGAC (site CGAATGCCTGT)	0.465
CGACCATCATGGACCGGTTTTCCCGGTAATCCGTATTTGCT (site CGAACATCTAG)	1.13
CGACCATCATGGACCGGTTTTCCCGGTAATCCGTATTTGCT (site CGACCATCTAG)	2.13
CGACCATCATGGACCGGTTTTCCCGGTAATCCGTATTTGCT (site CGAGCATCTAG)	0
CGACCATCATGGACCGGTTTTCCCGGTAATCCGTATTTGCT (site CGATCATCTAG)	0
CGACGCGCATGGACCGGTTTTCCCGGTAATCCGTATTTGGG (site CGACGCGCTCC)	0.672
CGACTATCATGGACCGGTTTTCCCGGTAATCCGTATTTGTG (site CGACTATCTCA)	3.11
CGACTCTCATGGACCGGTTTTCCCGGTAATCCGTATTTGAC (site CGACTCTCTGT)	2.88
CGAGAACCATGGACCGGTTTTCCCGGTAATCCGTATTTGAT (site CGAGAACCTAT)	0
CGAGAACCATGGACCGGTTTTCCCGGTAATCCGTATTTGAT (site CGCGAACCTAT)	0
CGAGAACCATGGACCGGTTTTCCCGGTAATCCGTATTTGAT (site CGGGAACCTAT)	0
CGAGAACCATGGACCGGTTTTCCCGGTAATCCGTATTTGAT (site CGTGAACCTAT)	0
CGAGCACCATGGACCGGTTTTCCCGGTAATCCGTATTTGCT (site CGAGCACCTAG)	0
CGAGCGACATGGACCGGTTTTCCCGGTAATCCGTATTTGTT (site CGAACGACTAA)	0.607
CGAGCGACATGGACCGGTTTTCCCGGTAATCCGTATTTGTT (site CGACCGACTAA)	0.0145
CGAGCGACATGGACCGGTTTTCCCGGTAATCCGTATTTGTT (site CGAGCGACTAA)	1.49
CGAGCGACATGGACCGGTTTTCCCGGTAATCCGTATTTGTT (site CGATCGACTAA)	0.0192
CGAGCGCCATGGACCGGTTTTCCCGGTAATCCGTATTTGTG (site CAAGCGCCTCA)	0.0595
CGAGCGCCATGGACCGGTTTTCCCGGTAATCCGTATTTGTG (site CCAGCGCCTCA)	0.0345
